Assays:
Test in all cases: relative viability (nuclei count vs DMSO), 5 days (fraction); higher = more cells survive
Bleomycin + OSI-027 = compound: CC1=C(N=C(N=C1N)[C@H](CC(=O)N)NC[C@@H](C(=O)N)N)C(=O)N[C@@H]([C@H](C2=CN=CN2)OC3C(C(C(C(O3)CO)O)O)OC4C(C(C(C(O4)CO)O)OC(=O)N)O)C(=O)N[C@H](C)[C@H]([C@H](C)C(=O)N[C@@H]([C@@H](C)O)C(=O)NCCC5=NC(=CS5)C6=NC(=CS6)C(=O)NCCC[S+](C)C)O [Bleomycin] + COc1cccc2cc(-c3nc([C@H]4CC[C@H](C(=O)O)CC4)n4ncnc(N)c34)[nH]c12 [OSI-027] (partner 0.5 µM); conditions: main component drawn
Method in brief: (§1)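 Lung cancer cell lines in 1536-well plates were dosed by pin tool the day after seeding, either with one drug alone or with a fixed anchor-drug dose plus five library-drug doses (not always all listed) in √10 steps. After 5 days, cells were fixed and their nuclei stained in one step (final 0.05% Triton X-100, 1% formaldehyde, 1 ug/ml Hoechst), then counted on 4× images. Relative viability is the nuclei count in treated wells divided by that in vehicle wells. Values are medians of duplicate plates.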

Bleomycin + Tozasertib = compound: CC1=C(N=C(N=C1N)[C@H](CC(=O)N)NC[C@@H](C(=O)N)N)C(=O)N[C@@H]([C@H](C2=CN=CN2)OC3C(C(C(C(O3)CO)O)O)OC4C(C(C(C(O4)CO)O)OC(=O)N)O)C(=O)N[C@H](C)[C@H]([C@H](C)C(=O)N[C@@H]([C@@H](C)O)C(=O)NCCC5=NC(=CS5)C6=NC(=CS6)C(=O)NCCC[S+](C)C)O [Bleomycin] + Cc1cc(Nc2cc(N3CCN(C)CC3)nc(Sc3ccc(NC(=O)C4CC4)cc3)n2)n[nH]1 [Tozasertib] (partner 0.1 µM); conditions: main component drawn
Method in brief: as §1

Etoposide + Alpelisib = compound: COc1cc([C@@H]2c3cc4c(cc3[C@@H](O[C@@H]3O[C@@H]5CO[C@@H](C)O[C@H]5[C@H](O)[C@H]3O)[C@H]3COC(=O)[C@H]23)OCO4)cc(OC)c1O [Etoposide] + Cc1nc(NC(=O)N2CCC[C@H]2C(N)=O)sc1-c1ccnc(C(C)(C)C(F)(F)F)c1 [Alpelisib] (partner 2 µM)
Method in brief: as §1

Bleomycin + AZD7762 = compound: CC1=C(N=C(N=C1N)[C@H](CC(=O)N)NC[C@@H](C(=O)N)N)C(=O)N[C@@H]([C@H](C2=CN=CN2)OC3C(C(C(C(O3)CO)O)O)OC4C(C(C(C(O4)CO)O)OC(=O)N)O)C(=O)N[C@H](C)[C@H]([C@H](C)C(=O)N[C@@H]([C@@H](C)O)C(=O)NCCC5=NC(=CS5)C6=NC(=CS6)C(=O)NCCC[S+](C)C)O [Bleomycin] + NC(=O)Nc1cc(-c2cccc(F)c2)sc1C(=O)N[C@H]1CCCNC1 [AZD7762] (partner 0.2 µM); conditions: main component drawn
Method in brief: as §1

Row | Cell Line | relative viability (Bleomycin + OSI-027; first compound 0.03162 µM) | relative viability (Bleomycin + OSI-027; first compound 0.1 µM) | relative viability (Bleomycin + OSI-027; first compound 0.3162 µM) | relative viability (Bleomycin + OSI-027; first compound 1 µM) | relative viability (Bleomycin + Tozasertib; first compound 0.03162 µM) | relative viability (Bleomycin + Tozasertib; first compound 0.1 µM) | relative viability (Bleomycin + Tozasertib; first compound 0.3162 µM) | relative viability (Bleomycin + Tozasertib; first compound 1 µM) | relative viability (Etoposide + Alpelisib; first compound 0.03162 µM) | relative viability (Etoposide + Alpelisib; first compound 0.1 µM) | relative viability (Etoposide + Alpelisib; first compound 0.3162 µM) | relative viability (Etoposide + Alpelisib; first compound 1 µM) | relative viability (Bleomycin + AZD7762; first compound 0.01 µM) | relative viability (Bleomycin + AZD7762; first compound 0.03162 µM) | relative viability (Bleomycin + AZD7762; first compound 0.1 µM) | relative viability (Bleomycin + AZD7762; first compound 0.3162 µM) | relative viability (Bleomycin + AZD7762; first compound 1 µM) | relative viability (Bleomycin + OSI-027; first compound 0.01 µM) | relative viability (Bleomycin + Tozasertib; first compound 0.01 µM) | relative viability (Etoposide + Alpelisib; first compound 0.01 µM)
1 | NCI-H2087 | 0.515 | 0.379 | 0.123 | 0.126 | 0.198 | 0.186 | 0.14 | 0.119 | 0.985 | 1.01 | 0.512 | 0.255 | 0.981 | 1.2 | 1.31 | 0.976 | 0.512 |  |  | 
2 | HCC-366 | 0.643 | 0.471 | 0.122 | 0.119 | 0.11 | 0.0755 | 0.0502 | 0.0319 | 0.39 | 0.333 | 0.162 | 0.0382 | 0.305 | 0.231 | 0.156 | 0.065 | 0.0338 | 0.675 | 0.0825 | 0.305
3 | 201T | 0.77 | 0.634 | 0.407 | 0.207 | 0.943 | 0.894 | 0.642 | 0.548 | 1.06 | 0.921 | 0.94 | 0.691 | 0.487 | 0.543 | 0.438 | 0.422 | 0.334 | 0.649 | 0.874 | 1.02
4 | HCC-827 | 0.81 | 0.6 | 0.562 | 0.193 | 0.453 | 0.332 | 0.311 | 0.205 | 0.912 | 0.696 | 0.453 | 0.18 | 0.195 |  | 0.199 | 0.148 | 0.167 | 0.71 | 0.419 | 0.967
5 | NCI-H650 | 0.546 | 0.481 | 0.429 | 0.234 | 0.627 | 0.57 | 0.231 | 0.188 | 0.977 | 0.949 | 0.5 | 0.24 | 0.949 | 1.07 | 0.723 | 0.515 | 0.36 | 0.433 | 0.584 | 0.945
6 | NCI-H596 | 0.561 | 0.512 | 0.304 | 0.278 | 0.583 | 0.468 | 0.354 | 0.253 | 0.491 |  | 0.457 | 0.425 | 1.06 | 1.03 | 0.891 | 0.349 | 0.398 | 0.48 | 0.639 | 0.383
7 | A-427 | 0.439 | 0.34 | 0.187 | 0.144 | 0.168 | 0.223 | 0.126 | 0.159 | 1.14 | 0.713 | 0.755 | 0.229 | 0.7 | 0.748 | 0.542 | 0.353 | 0.241 | 0.332 | 0.201 | 1.07
8 | NCI-H460 | 0.334 | 0.165 | 0.038 | 0.0308 | 0.101 | 0.153 | 0.0462 | 0.0258 | 0.355 | 0.272 | 0.0559 | 0.0284 | 0.409 | 0.475 | 0.269 | 0.134 | 0.0663 | 0.373 | 0.0837 | 0.479
9 | RERF-LC-KJ | 0.364 | 0.314 | 0.244 | 0.239 | 0.339 | 0.297 | 0.234 | 0.193 | 0.924 | 0.513 | 0.852 | 0.622 | 0.905 | 0.848 | 0.492 | 0.278 | 0.179 | 0.378 | 0.311 | 0.73
10 | EMC-BAC-2 | 0.326 | 0.304 | 0.257 | 0.159 | 0.278 | 0.246 | 0.22 | 0.178 | 0.65 | 0.522 | 0.238 | 0.15 | 0.96 | 1.05 | 1.08 | 0.607 | 0.415 | 0.298 | 0.2 | 0.711
11 | LK-2 | 0.202 | 0.177 | 0.167 | 0.162 | 0.159 | 0.179 | 0.179 | 0.177 | 1.12 | 0.71 | 0.764 | 0.288 | 0.26 | 0.271 | 0.218 | 0.134 | 0.116 | 0.192 | 0.178 | 1.01
12 | NCI-H322M | 0.535 | 0.513 | 0.464 | 0.421 | 0.496 | 0.473 | 0.396 | 0.38 | 0.786 | 0.663 | 0.658 | 0.472 | 0.529 | 0.523 | 0.564 | 0.436 | 0.416 | 0.399 | 0.424 | 0.712
13 | NCI-H1975 | 0.638 | 0.435 | 0.153 | 0.132 | 0.466 | 0.42 | 0.152 | 0.0955 | 0.822 | 0.693 | 0.56 | 0.273 | 0.609 | 0.649 | 0.555 | 0.259 | 0.291 | 0.566 | 0.485 | 0.621
14 | NCI-H1944 | 0.278 | 0.224 | 0.179 | 0.151 | 0.197 | 0.187 | 0.147 | 0.12 | 0.969 | 0.645 | 0.564 | 0.249 | 0.246 | 0.384 | 0.317 | 0.211 | 0.172 | 0.279 | 0.196 | 0.742
15 | SW 900 | 0.336 | 0.425 | 0.15 | 0.134 | 0.467 | 0.341 | 0.208 | 0.174 |  |  |  |  | 0.525 | 0.591 | 0.392 | 0.264 | 0.24 | 0.428 | 0.507 | 

— the supplement of paper PMC10307832
